The NIST ThermoML archive (doi:10.1016/j.jct.2017.11.012)

Conditions: for mass density: 101.33 kPa, Liquid, Buoyancy - hydrostatic balance with magnetic suspension - one sinker

CCn1cc[n+](C)c1.[Br-] [1-ethyl-3-methylimidazolium bromide]
surface tension liquid-gas [mN/m]
Conditions	343.14 K	348.29 K	348.32 K	352.84 K	358.28 K	364.1 K	364.11 K
Ring tensiometer	62.01	61.86	–	61.28	61.25	60.53	–
Wilhelmy Plate	–	–	61.4	61.03	60.65	–	60.34

Conditions	mass density [kg/m3]
348.26 K	1381.17
352.77 K	1378.39
358.17 K	1375.04
364.02 K	1370.88

CCCCCCCCCn1cc[n+](C)c1.[Br-] [1-methyl-3-nonylimidazolium bromide]
Conditions	mass density [kg/m3]
293.53 K	1151.11
298.66 K	1147.53
303.27 K	1143.87
308.55 K	1140.39
313.46 K	1136.5
318.04 K	1132.93
323.21 K	1129.22
327.91 K	1125.75
333.09 K	1122.06
338.45 K	1118.47
342.75 K	1115.49
348.28 K	1112.09
353.51 K	1108.37
358.3 K	1105.2
361.69 K	1103.16

surface tension liquid-gas [mN/m]
Conditions	Ring tensiometer	Wilhelmy Plate
298.64 K	30.63	–
303.27 K	30.41	–
303.28 K	–	30.12
308.54 K	30.17	–
308.55 K	–	29.91
313.44 K	29.95	29.73
318.03 K	29.77	29.54
323.2 K	29.62	–
323.23 K	–	29.3
327.94 K	29.41	–
327.97 K	–	29.1
333.09 K	29.19	–
333.11 K	–	28.86
338.49 K	28.72	28.59
342.76 K	28.51	–
342.8 K	–	28.39
348.23 K	28.46	–
348.31 K	–	28.18
352.32 K	27.98	–
352.4 K	–	27.99
358.25 K	27.94	–
358.31 K	–	27.75
361.6 K	27.82	–
361.68 K	–	27.59

CCCCCCCCCCn1cc[n+](C)c1.[Br-] [1-decyl-3-methylimidazolium bromide]
Conditions	mass density [kg/m3]
298.41 K	1128.2
303.45 K	1124.55
308.2 K	1121.27
313.5 K	1117.38
318.29 K	1113.91
322.96 K	1110.37
327.96 K	1106.69
333.59 K	1102.59
337.76 K	1099.91
343.08 K	1095.88
348.29 K	1092.59
352.96 K	1089.23
358.48 K	1085.6
361.87 K	1083.32

Conditions	surface tension liquid-gas [mN/m]
303.38 K, Ring tensiometer	28.04
303.43 K, Wilhelmy Plate	27.64
308.15 K, Ring tensiometer	27.97
313.47 K, Ring tensiometer	27.73
318.26 K, Ring tensiometer	27.54
322.99 K, Ring tensiometer	27.14
323.02 K, Wilhelmy Plate	26.87
328.01 K, Ring tensiometer	27.01
328.08 K, Wilhelmy Plate	26.65
332.75 K, Ring tensiometer	26.87
332.76 K, Wilhelmy Plate	26.45
337.48 K, Wilhelmy Plate	26.22
338.06 K, Ring tensiometer	26.74
343.15 K, Ring tensiometer	26.07
343.19 K, Wilhelmy Plate	25.97
347.35 K, Ring tensiometer	26.14
347.47 K, Wilhelmy Plate	25.82
352.46 K, Ring tensiometer	25.77
352.93 K, Wilhelmy Plate	25.57
358.38 K, Ring tensiometer	25.28
358.41 K, Wilhelmy Plate	25.36
361.45 K, Ring tensiometer	25.51
361.5 K, Wilhelmy Plate	25.22

CCCCCCCn1cc[n+](C)c1.[Br-] [1-heptyl-3-methylimidazolium bromide]
Conditions	mass density [kg/m3]
288.61 K	1204.51
293.46 K	1200.12
298.41 K	1196.78
303.25 K	1193
308.21 K	1189.59
313.68 K	1184.48
318.07 K	1180.84
323.13 K	1177.36
328.04 K	1173.42
333.16 K	1169.7
338.28 K	1165.8
342.93 K	1162.61
348 K	1159.27
353.15 K	1155.57
358.44 K	1151.81
361.83 K	1149.33

surface tension liquid-gas [mN/m]
Conditions	Ring tensiometer	Wilhelmy Plate
313.61 K	34.83	34.57
317.99 K	34.5	–
318.02 K	–	34.35
323.11 K	34.21	–
323.13 K	–	34.09
328.07 K	34.3	–
328.11 K	–	33.89
333.19 K	33.55	–
333.24 K	–	33.58
338.33 K	33.25	33.3
341.81 K	33.17	–
341.91 K	–	33.14
347.18 K	33.07	–
347.23 K	–	32.89
353.09 K	32.56	–
353.14 K	–	32.61
358.31 K	32.41	–
358.37 K	–	32.4
361.72 K	32.03	–
361.8 K	–	32.17

CCCCn1cc[n+](C)c1.[Br-] [1-butyl-3-methylimidazolium bromide]
surface tension liquid-gas [mN/m]
Conditions	Ring tensiometer	Wilhelmy Plate
308.39 K	50.28	49.98
313.11 K	49.8	49.69
318.48 K	49.51	49.33
323.54 K	–	48.98
323.57 K	49.22	–
328.1 K	–	48.67
328.14 K	48.96	–
333.02 K	–	48.35
333.03 K	48.6	–
337.99 K	48.27	–
338.01 K	–	48.07
342.75 K	48	47.75
349.14 K	47.72	–
349.16 K	–	47.31
353.12 K	47.24	–
353.41 K	–	47.09
358.27 K	47.27	–
358.3 K	–	46.78
362.9 K	46.86	–
362.92 K	–	46.39

Conditions	mass density [kg/m3]
308.39 K	1299.64
313.12 K	1296.36
318.5 K	1292.56
323.58 K	1288.88
328.14 K	1285.46
333.02 K	1281.54
337.96 K	1278.29
342.67 K	1275.32
349.08 K	1271.43
353.08 K	1268.23
358.19 K	1264.49
362.86 K	1261.43
